Measured values taken from ChEMBL document CHEMBL1133695, “A three-dimensional model of lanosterol 14alpha-demethylase of Candida albicans and its interaction with azole antifungals” (J Med Chem, 2000).

Each compound was assayed on Candida albicans (assay: Concentration required to reduce the growth of Candida albicans to 50% of that in the control).
Format: functional, organism-based
`COc1cc(C(F)(F)F)ccc1C(O)(Cn1cncn1)Cn1cncn1` was tested, and the IC50 was 28.5 µM. With `OC(Cn1cncn1)(Cn1cncn1)c1ccccc1C(F)(F)F` the IC50 was 103 µM. Compound `OC(Cn1cncn1)(Cn1cncn1)c1ccc(-c2ccc(Cl)cc2)cc1` has an IC50 of 7.19 µM. For `OC(Cn1cncn1)(Cn1cncn1)c1ccc(C(F)(F)F)cc1`, the IC50 was 3.25 µM. For `Cc1cc(F)ccc1C(O)(Cn1cncn1)Cn1cncn1`, the IC50 was 101 µM. With `OC(Cn1cncn1)(Cn1cncn1)c1ccc(Oc2ccc(Cl)cc2)cc1` the IC50 was 6.94 µM. Work on `OC(Cn1cncn1)(Cn1cncn1)c1ccc(F)cc1F` [FLUCONAZOLE] yielded an IC50 of 1.97 µM.
